Test system: androgen receptor (AR) in LNCaP and/or VCaP cells
Assay: Androgen Receptor ELISA assay (AR degradation)
Type: cell-based
Settings: LNCaP and/or VCaP cells; 5 hours incubation; media with R1881; read-out: DC50 Code* (degradation of AR ELISA)
In short: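 VCaP cells grown ≥3 days, then treated 5 h with compound in media containing 1 nM R1881 (10× stock). Cells lysed and AR quantified by sandwich ELISA (mouse AR detection Ab, HRP anti-mouse, TMB). DC50 and Dmax derived from AR degradation.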

SMILES | DC50 [nM]
CC(C)N(CC1CCN(c2ncc(C(=O)NC3CCC(Oc4ccc(C#N)c(Cl)c4)CC3)cn2)CC1)C1CCC(Oc2ccc3c(c2)C(=O)N(C2CCC(=O)NC2=O)C3=O)CC1 (stereo not drawn) [Compound 59, N-((1r,4r)-4-(3-chloro-4-cyanophenoxy)cyclohexyl)-2-(4-((((1r,4r)-4-((2-(2,6-dioxopiperidin-3-yl)-1,3-dioxoisoindolin-5-yl)oxy)cyclohexyl) (isopropyl)amino)methyl)piperidin-1-yl)pyrimidine-5-carboxamide] | < 1
CC1(N2C(=O)c3cc(F)c(N4CCN(CC5CCN(c6ccc(C(=O)N[C@H]7CC[C@H](Oc8ccc(C#N)c(Cl)c8)CC7)nn6)CC5)CC4)cc3C2=O)CCC(=O)NC1=O (stereo partly drawn) [Compound 69, N-((1r,4r)-4-(3-chloro-4-cyanophenoxy)cyclohexyl)-6-(4-((4-(6-fluoro-2-(3-methyl-2,6-dioxopiperidin-3-yl)-1,3-dioxoisoindolin-5-yl)piperazin-1-yl)methyl)piperidin-1-yl)pyridazine-3-carboxamide] | < 1

Next, values leading:

DC50 [nM] | SMILES
< 1 | CC(C)N(CC1CN(c2ncc(C(=O)N[C@H]3CC[C@H](Oc4ccc(C#N)c(Cl)c4)CC3)cn2)C1)[C@H]1C[C@H](Oc2ccc3c(c2)C(=O)N(C2CCC(=O)NC2=O)C3=O)C1 (stereo partly drawn) [Compound 66, N-((1r,4r)-4-(3-chloro-4-cyanophenoxy)cyclohexyl)-2-(3-((((1r,3r)-3-((2-(2,6-dioxopiperidin-3-yl)-1,3-dioxoisoindolin-5-yl)oxy)cyclobutyl) (isopropyl)amino)methyl)azetidin-1-yl)pyrimidine-5-carboxamide]
< 1 | COCCN(CC1CCN(c2cnc(C(=O)N[C@H]3CC[C@H](Oc4ccc(C#N)c(Cl)c4)CC3)cn2)CC1)[C@H]1C[C@H](Oc2ccc3c(c2)CN(C2CCC(=O)NC2=O)C3=O)C1 (stereo partly drawn) [Compound 16, N-((1r,4r)-4-(3-chloro-4-cyanophenoxy)cyclohexyl)-5-(4-((((1r,3r)-3-((2-(2,6-dioxopiperidin-3-yl)-1-oxoisoindolin-5-yl)oxy)cyclobutyl)(2-methoxyethyl)amino)methyl)piperidin-1-yl)pyrazine-2-carboxamide]

Same assay, conditions: degradation of AR ELISA in LNCaP and/or VCaP cells; Table 2C; read-out: DC50 Code*

SMILES | DC50 [nM]
[2H]C([2H])([2H])OCCN(CC1CCN(c2ccc(C(=O)N[C@H]3C(C)(C)[C@H](Oc4cc(C)c(C#N)c(C)c4)C3(C)C)cc2)CC1)[C@H]1C[C@H](Oc2cc(OC([2H])([2H])[2H])c3c(c2)C(=O)N(C2CCC(=O)NC2=O)C3=O)C1 (mixture of isomers) [compound 181, rac-N-((1r,3r)-3-(4-cyano-3,5-dimethylphenoxy)-2,2,4,4-tetramethylcyclobutyl)-4-(4-((((1r,3r)-3-((2-(2,6-dioxopiperidin-3-yl)-7-(methoxy-d3)-1,3-dioxoisoindolin-5-yl)oxy)cyclobutyl)(2-(methoxy-d3)ethyl)amino)methyl)piperidin-1-yl)benzamide] | < 1
COCCN(CC1CC2(C1)CN(c1ccc(C(=O)N[C@H]3C(C)(C)[C@H](Oc4ccc(C#N)c(OC)c4)C3(C)C)cc1)C2)[C@H]1C[C@H](Oc2ccc3c(c2)C(=O)N(C2CCC(=O)NC2=O)C3=O)C1 (mixture of isomers) [compound 190, rac-N-((1r,3r)-3-(4-cyano-3-methoxyphenoxy)-2,2,4,4-tetramethylcyclobutyl)-4-(6-((((1r,3r)-3-((2-(2,6-dioxopiperidin-3-yl)-1,3-dioxoisoindolin-5-yl)oxy)cyclobutyl)(2-methoxyethyl)amino)methyl)-2-azaspiro[3.3]heptan-2-yl)benzamide] | < 1
COc1cc(O[C@H]2C[C@H](OC3CCN(c4ccc(C(=O)N[C@H]5C(C)(C)[C@H](Oc6cc(C)c(C#N)c(C)c6)C5(C)C)cc4)CC3)C2)cc2c1C(=O)N(C1CCC(=O)NC1=O)C2=O (mixture of isomers) [compound 197, rac-N-((1r,3r)-3-(4-cyano-3,5-dimethylphenoxy)-2,2,4,4-tetramethylcyclobutyl)-4-(4-((1r,3r)-3-((2-(2,6-dioxopiperidin-3-yl)-7-methoxy-1,3-dioxoisoindolin-5-yl)oxy)cyclobutoxy)piperidin-1-yl)benzamide] | < 1

Other lines, results leading:

DC50 [nM] | SMILES
< 1 | CC(C)N(CC1CCN(c2cnc(C(=O)N[C@H]3C(C)(C)[C@H](Oc4ccc(C#N)c(Cl)c4)C3(C)C)cn2)CC1)[C@H]1C[C@H](Oc2ccc3c(c2)CN(C2CCC(=O)NC2=O)C3=O)C1 (stereo partly drawn) [compound 113, N-((1r,3r)-3-(3-chloro-4-cyanophenoxy)-2,2,4,4-tetramethylcyclobutyl)-5-(4-((((1r,3r)-3-((2-(2,6-dioxopiperidin-3-yl)-1-oxoisoindolin-5-yl)oxy)cyclobutyl) (isopropyl)amino)methyl)piperidin-1-yl)pyrazine-2-carboxamide]
< 1 | COCCN(CC1CCN(c2ccc(C(=O)N[C@H]3C(C)(C)[C@H](Oc4ccc(C#N)c(Cl)c4)C3(C)C)nn2)CC1)[C@H]1C[C@H](Oc2ccc3c(c2)C(=O)N(C2CCC(=O)NC2=O)C3=O)C1 (stereo partly drawn) [compound 127, N-((1r,3r)-3-(3-chloro-4-cyanophenoxy)-2,2,4,4-tetramethylcyclobutyl)-6-(4-((((1r,3r)-3-((2-(2,6-dioxopiperidin-3-yl)-1,3-dioxoisoindolin-5-yl)oxy)cyclobutyl)(2-methoxyethyl)amino)methyl)piperidin-1-yl)pyridazine-3-carboxamide]
< 1 | Cc1cc(O[C@H]2C(C)(C)[C@H](NC(=O)c3ccc(N4CCC(CN(C(C)C)[C@H]5C[C@H](Oc6ccc7c(c6)C(=O)N([C@@H]6CCC(=O)NC6=O)C7=O)C5)CC4)cc3)C2(C)C)cc(C)c1C#N [compound 160, N-((1r,3r)-3-(4-cyano-3,5-dimethylphenoxy)-2,2,4,4-tetramethylcyclobutyl)-4-(4-((((1R,3r)-3-((2-((R)-2,6-dioxopiperidin-3-yl)-1,3-dioxoisoindolin-5-yl)oxy)cyclobutyl) (isopropyl)amino)methyl)piperidin-1-yl)benzamide]
< 1 | Cc1cc(O[C@H]2C(C)(C)[C@H](NC(=O)c3cnc(N4CCC(CCN5CC(Oc6ccc7c(c6)C(=O)N(C6CCC(=O)NC6=O)C7=O)C5)CC4)nc3)C2(C)C)cc(C)c1C#N (stereo partly drawn) [compound 85, N-((1r,3r)-3-(4-cyano-3,5-dimethylphenoxy)-2,2,4,4-tetramethylcyclobutyl)-2-(4-(2-(3-((2-(2,6-dioxopiperidin-3-yl)-1,3-dioxoisoindolin-5-yl)oxy)azetidin-1-yl)ethyl)piperidin-1-yl)pyrimidine-5-carboxamide]
< 1 | COCCN(CC1CCN(c2cnc(C(=O)N[C@H]3C(C)(C)[C@H](Oc4cc(C)c(C#N)c(C)c4)C3(C)C)cn2)CC1)[C@H]1C[C@H](Oc2cc3c(cc2OC)C(=O)N(C2CCC(=O)NC2=O)C3=O)C1 (mixture of isomers) [compound 222, rac-N-((1r,3r)-3-(4-cyano-3,5-dimethylphenoxy)-2,2,4,4-tetramethylcyclobutyl)-5-(4-((((1r,3r)-3-((2-(2,6-dioxopiperidin-3-yl)-6-methoxy-1,3-dioxoisoindolin-5-yl)oxy)cyclobutyl)(2-methoxyethyl)amino)methyl)piperidin-1-yl)pyrazine-2-carboxamide]

From patent publication US20260053932A1, “COMPOUNDS AND METHODS FOR THE TARGETED DEGRADATION OF ANDROGEN RECEPTOR AND ASSOCIATED METHODS OF USE” (Arvinas Operations, Inc., priority 2020, published 2026)
